The results in this text go back to BindingDB's records for patent US20250282736 (ST. JUDE CHILDREN''S RESEARCH HOSPITAL, 2025).

The series deals with T1, PXR (Nuclear receptor subfamily 1 group I member 2) (Homo sapiens, UniProt O75469).
T1 sequence (O75469 whole entry): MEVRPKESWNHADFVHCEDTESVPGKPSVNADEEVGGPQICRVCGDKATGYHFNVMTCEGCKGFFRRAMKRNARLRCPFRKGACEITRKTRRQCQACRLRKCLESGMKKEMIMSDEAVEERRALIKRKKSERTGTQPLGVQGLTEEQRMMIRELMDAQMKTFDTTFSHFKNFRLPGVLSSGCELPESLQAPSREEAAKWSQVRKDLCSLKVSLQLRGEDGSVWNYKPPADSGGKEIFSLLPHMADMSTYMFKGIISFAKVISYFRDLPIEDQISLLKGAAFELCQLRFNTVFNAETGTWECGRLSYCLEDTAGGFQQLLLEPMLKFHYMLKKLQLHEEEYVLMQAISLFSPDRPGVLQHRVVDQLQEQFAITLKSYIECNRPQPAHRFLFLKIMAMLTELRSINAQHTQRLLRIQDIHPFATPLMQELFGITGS
Briefly: In Vitro Assay. The source says: PXR can be determined in an in vitro assay system. Such in vitro assay systems include assay such as the assays as described herein.

For orientation: IC50 means the concentration needed to halve the response being measured. Lower therefore signals greater potency in that assay. In turn, `CCCC(CC)Oc1ccc(C(C)(C)C)cc1NC(=O)c1nnn(-c2cc(OC)ccc2OC)c1C` (configuration not stated) [US20250282736, Compound J1] came in with an IC50 of 0.0038 µM. That is a single-digit nanomolar value. `COc1ccc(Cl)cc1-n1nnc(C(=O)Nc2cc(C(C)(C)C)ccc2OCC(=O)O)c1C` [US20250282736, Compound B25] gave a 50% inhibitory concentration (IC50) of 0.36 µM.
